Experimental data reported in patent US20150157645A1, “COMBINATION OF A 17-ALPHA-HYDROXYLASE (C17,20-LYASE) INHIBITOR AND A SPECIFIC PI-3K INHIBITOR FOR TREATING A TUMOR DISEASE” (priority 2012, published 2015).
Marks after values point to notes of the source that are not given here.

Assays:
[1] = system: human prostate LNCap xenograft; assay: human prostate LnCap xenograft model in SCID mice (study MIS-43P-12); format: in vivo; set-up: Average / Delta avg: unit not given here; details: D 300 mg/kg bid, C 30 mg/kg qd; for anti-tumor response (in words): LnCap, single agent, AA 100 mg/kg bid; for T/C [%] / Delta avg / Average: po, C/D 30/300 qd/bid; for Delta avg: change of average tumor volume
Procedure: (§1) Recently, in vivo anti-tumor efficacy of 1-(2-Chloro-pyridin-4-yl)-3-(4-methyl-pyridin-3-yl)-imidazolidin-2-one was evaluated alone and in combination with COMPOUND C or its hydrochloride salt (a pan PI3K inhibitor) in two human prostate cancer xenograft models, VCap and LnCap, established in SCID mice. The VCap tumors which, express PTEN and over-express wild type AR, were established in chemically-castrated mice. The LnCap tumors which, express mutant AR (T877A) and are PTEN null, were initially established in non-castrated animals which were chemically-castrated at the time of treatment.

[2] = system: human prostate VCap xenograft; assay: human prostate VCap xenograft model in SCID mice (studies MIS-32S-12 and MIS-59FVA-12); details: for ΔTumor volume (mm^3): mean ± SEM
Procedure: as §1

[3] = MIS-43P-12, day 0 of treatment, E 100 mg/kg bid
[4] = MIS-43P-12, day 4 of treatment, E 100 mg/kg bid
[5] = MIS-43P-12, day 11 of treatment
[6] = MIS-43P-12, day 14 of treatment, E 100 mg/kg bid
[7] = MIS-43P-12, day 18 of treatment, E 100 mg/kg bid
[8] = MIS-43P-12, day 0, E 100 mg/kg bid
[9] = MIS-43P-12, day 4, E 100 mg/kg bid
[10] = MIS-43P-12, day 14, E 100 mg/kg bid
[11] = MIS-43P-12, day 18, E 100 mg/kg bid
[12] = tumor volume (FIG. 3a), MIS-43P-12, day 0 of treatment, E 100 mg/kg bid
[13] = tumor volume, MIS-43P-12, day 4 of treatment, E 100 mg/kg bid
[14] = tumor volume, MIS-43P-12, day 7 of treatment
[15] = tumor volume, MIS-43P-12, day 11 of treatment
[16] = tumor volume, MIS-43P-12, day 14 of treatment, E 100 mg/kg bid
[17] = tumor volume, MIS-43P-12, day 18 of treatment, E 100 mg/kg bid
[18] = MIS-32S-12, Day 14, p.o., D 300 mg/kg bid, AA 100 mg/kg bid, C 30 mg/kg qd, C + D 30 qd + 300 bid
[19] = MIS-32S-12, Day 35, p.o., D 300 mg/kg bid, AA 100 mg/kg bid, C 30 mg/kg qd, C + D 30 qd + 300 bid
[20] = MIS-32S-12, Day 35, p.o., D 300 mg/kg bid, AA 100 mg/kg bid, C 30 mg/kg qd, C + D 30 mg/kg qd + 300 mg/kg bid
[21] = MIS-59FVA-12, Day 14, p.o., D 300 mg/kg bid, C 30 mg/kg qd, C + D 30 qd + 300 bid (so in the source)
[22] = MIS-59FVA-12, Day 14, p.o., D 300 mg/kg bid, C 30 mg/kg qd (so in the source)
[23] = MIS-59FVA-12, Day 23, p.o., D 300 mg/kg bid, C 30 mg/kg qd, C + D 30 qd + 300 bid (so in the source)
[24] = MIS-59FVA-12, Day 23, p.o., D 300 mg/kg bid, C 30 mg/kg qd (so in the source)

Row | Compound | anti-tumor response (in words) [1] | T/C [%] [1, 3] [%] | T/C [%] [1, 4] [%] | T/C [%] ([1]; MIS-43P-12, day 7 of treatment) | T/C [%] [1, 5] [%] | T/C [%] [1, 6] [%] | T/C [%] [1, 7] [%] | Delta avg [1, 8] | Delta avg [1, 9] | Delta avg ([1]; MIS-43P-12, day 7) | Delta avg ([1]; MIS-43P-12, day 11) | Delta avg [1, 10] | Delta avg [1, 11] | Average [1, 12] | Average [1, 13] | Average [1, 14] | Average [1, 15] | Average [1, 16] | Average [1, 17] | ΔTumor volume (mm^3) [2, 18] [mm^3] | other results
1 | Nc1cc(C(F)(F)F)c(-c2cc(N3CCOCC3)nc(N3CCOCC3)n2)cn1 [Compound C, 5-(2,6-di-morpholin-4-yl-pyrimidin-4-yl)-4-trifluoromethyl-pyridin-2-ylamine] | marginal tumor growth delay | 100 | 56 | 71 | 86 | 75 | 79 | 0 | 29 | 88 | 198 | 261 | 375 | 170 | 199 | 258 | 369 | 432 | 546 | −18.9 ± 6.3 | Regression (printed in T/C column) ([2]; MIS-32S-12, Day 14, p.o., C 30 mg/kg qd, C + D 30 mg/kg qd + 300 mg/kg bid): 13.8%*; Survival (alive/total) [2, 18]: 7/7; ΔTumor volume (mm^3) [2, 19]: 23.3 ± 21.6 mm^3; T/C [%] [2, 20]: 5.0*^;$ %; Survival (alive/total) [2, 19]: 7/7; ΔTumor volume (mm^3) [2, 21]: 3.6 ± 7.6 mm^3; T/C [%] [2, 22]: 4.0%*; Survival (alive/total) [2, 21]: 7/7; ΔTumor volume (mm^3) [2, 23]: 25.6 ± 16.4 mm^3; T/C [%] [2, 24]: 12.4* %; Survival (alive/total) [2, 23]: 7/7; anti-tumor response (in words) ([2]; VCap, single agent 20 mg/kg qd): tumor growth delay; anti-tumor response (in words) ([2]; VCap, single agent 30 mg/kg qd): tumor regression
2 | Cc1ccncc1N1CCN(c2ccnc(Cl)c2)C1=O [Compound D, 1-(2-Chloro-pyridin-4-yl)-3-(4-methyl-pyridin-3-yl)-imidazolidin-2-one] | marginal tumor growth delay | 100 | 82 | 60 | 85 | 57 | 67 | 0 | 43 | 73 | 197 | 200 | 317 | 174 | 217 | 248 | 372 | 375 | 491 | 35.6 ± 10.5 | T/C [%] ([2]; MIS-32S-12, Day 14, p.o., D 300 mg/kg bid, AA 100 mg/kg bid, C 30 mg/kg qd, C + D 30 mg/kg qd + 300 mg/kg bid): 27.2*^$ %; ΔTumor volume (mm^3) [2, 19]: 303.9 ± 57.3 mm^3; T/C [%] [2, 20]: 65.2*^;$;# %; ΔTumor volume (mm^3) [2, 21]: 36.3 ± 17.0 mm^3; T/C [%] [2, 22]: 40.3* %; ΔTumor volume (mm^3) [2, 23]: 79.8 ± 20.1 mm^3; T/C [%] [2, 24]: 38.7*^;# %; anti-tumor response (in words) ([2]; two separate VCap experiments, single agent, D 300 mg/kg bid, AA 100 mg/kg bid): either slight tumor regression or tumor stasis initially, followed by tumor growth delay
